Experimental data as given in patent publication US20230123334A1, “AMINO LIPID COMPOUND, PREPARATION METHOD THEREFOR, AND APPLICATION THEREOF” (SHENZHEN SHENXIN BIOTECHNOLOGY CO., LTD., priority 2020, published 2023).

Assays:
Format in all cases: cell-based
[1] = test system: HEK293 cells; experiment: Preliminary screening as DNA vectors, GFP transfection of HEK293 cells; conditions: HEK293 cells; lipid/DOPE liposome with 75 ng plasmid DNA (psin-EGFP-IRES-Puro); number of cells expressing GFP divided by total number of nuclei (Hoechst)
Summary of the method: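 Lipid + DOPE liposomes (NaOAc, pH 5.6) complexed w/ 75 ng psin-EGFP-IRES-Puro, 30 min RT; added to 3-5×10^4 HEK293/well, 37° C. Hoechst 0.2 μg/mL at 20-24 h, imaged after further 20-24 h. Efficiency = GFP+ cells / total nuclei.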

[2] = test system: HEK293 cells; experiment: Preliminary screening as mRNA vectors, EGFP mRNA transfection of HEK293 cells; conditions: HEK293 cells, 96-well plates, EGFP mRNA 50 ng per well; percentage of GFP fluorescent cells relative to total number of cells (Hoechst)
Summary of the method: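 Each well of HEK293 cells received 50 ng of EGFP mRNA. Efficiency was expressed as percent GFP-expressing cells over Hoechst-defined total cell number.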

[3] = test system: Hela cells; experiment: Transfection of Hela cell line, DNA vectors; conditions: 75 ng plasmid DNA, GFP cells / total cells
Summary of the method: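 Amino lipid/DOPE liposomes in sodium acetate pH 5.6 were complexed with 75 ng psin-EGFP-IRES-Puro plasmid for 30 min at room temperature, then mixed with 3-5×10^4 Hela cells in DMEM/10% FBS at 37° C. Hoechst stain after 20-24 h, imaging after a further 20-24 h. Efficiency = GFP-positive cells / total nuclei.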

[4] = test system: Hela cells; experiment: Transfection of Hela cell line, mRNA vectors; conditions: 50 ng EGFP mRNA per well
Summary of the method: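 Transfection efficiency was scored as GFP-fluorescent cells over Hoechst-stained total nuclei, with Lipofectamine2000 as reference reagent. Each well of HeLa cells, grown in DMEM plus 10% FBS, received 50 ng EGFP mRNA.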

[5] = test system: MCF7 cells; experiment: Transfection of MCF7 cell line, DNA vectors; design: concentration or dose not given beside the values; conditions: plasmid DNA, GFP cells / total cells
Summary of the method: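 Read-out: GFP-positive cells as % of all Hoechst-stained nuclei after 96-well transfection of MCF7 cells grown in serum-supplemented DMEM. Positive control was Lipofectamine2000, used per manufacturer's protocol.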

[6] = test system: MCF7 cells; experiment: Transfection of MCF7 cell line, mRNA vectors; conditions: 50 ng EGFP mRNA per well
Summary of the method: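 Efficiency was scored as the fraction of GFP-fluorescent cells over all Hoechst-counted cells after delivery of 50 ng EGFP mRNA per well. Cells were MCF7 grown in serum-supplemented DMEM, and Lipofectamine2000 served as reference.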

[7] = test system: embryonic stem cells (hESC2); experiment: Screening as DNA vectors in embryonic stem cells, flow cytometry; conditions: 75 ng plasmid DNA, 48 hours after transfection, flow cytometer
Summary of the method: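 hESC2 cells in mTeSR1 on matrigel transfected with 75 ng pSin-EGFP-IRES-Puro complexed with amino lipid/DOPE liposomes formed in sodium acetate pH 5.6; 37 °C, 5% CO2. After 48 h, GFP-positive cells counted by flow cytometry (≥2000 cells), efficiency also expressed relative to Lipofectamine Stem.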

[8] = test system: embryonic stem cells (hESC2); experiment: Screening as mRNA vectors in embryonic stem cells; conditions: 50 ng EGFP mRNA per well
Summary of the method: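 EGFP mRNA (50 ng per well) transfected into hESC2 cells grown in mTeSR1; Lipofectamine Stem served as positive control. Read-out: GFP-fluorescent cells as percentage of total cells.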

[9] = test system: cardiomyocytes; experiment: Screening as DNA vectors in cardiomyocytes; design: concentration or dose not given beside the values; conditions: method as Example 4
Summary of the method: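 hESC-derived cardiomyocytes in DMEM with 10% FBS were transfected with a GFP DNA vector; Lipofectamine Stem served as positive control. Read-out: percentage of GFP-positive cells relative to total cells counted by Hoechst nuclear stain.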

[10] = test system: cardiomyocytes; experiment: Screening as mRNA vectors in cardiomyocytes; conditions: 50 ng EGFP mRNA per well
Summary of the method: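 Cardiomyocytes differentiated from hESC, in DMEM with 10% FBS, were transfected with 50 ng EGFP mRNA per well. The read-out was GFP-positive cells as a percentage of Hoechst-stained nuclei, with Lipofectamine Stem as positive control.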

Structure (SMILES): CCCCCCCCCCCCCCSc1nc(NCCCN2CCN(C)CC2)nc(SCCCCCCCCC)n1 [Compound S9S14D9]
- Absolute DNA transfection efficiency in HEK293 cells [1]: 28.4%
- Absolute mRNA transfection efficiency in HEK293 cells [2]: 68.8%
- Absolute DNA transfection efficiency in Hela cells [3]: 14.8%
- Absolute mRNA transfection efficiency in Hela cells [4]: 14.8%
- Absolute DNA transfection efficiency in MCF7 cells [5]: 38.2%
- Absolute mRNA transfection efficiency in MCF7 cells [6]: 19.1%
- Absolute DNA transfection efficiency in embryonic stem cells [7]: 2.5%
- Absolute mRNA transfection efficiency in embryonic stem cells [8]: 16.4%
- Absolute DNA transfection efficiency in cardiomyocytes [9]: 11.1%
- Absolute mRNA transfection efficiency in cardiomyocytes [10]: 12.4%

Structure (SMILES): CCCCCCCCCCCCCCSc1nc(NCC2CCN(C)CC2)nc(SCCCCCCCCC)n1 [Compound S9S14D10]
- Absolute DNA transfection efficiency in HEK293 cells [1]: 14.5%
- Absolute mRNA transfection efficiency in HEK293 cells [2]: 91.0%
- Absolute DNA transfection efficiency in Hela cells [3]: 7.2%
- Absolute mRNA transfection efficiency in Hela cells [4]: 7.5%
- Absolute DNA transfection efficiency in MCF7 cells [5]: 50.5%
- Absolute mRNA transfection efficiency in MCF7 cells [6]: 50.3%
- Absolute DNA transfection efficiency in embryonic stem cells [7]: 0.7%
- Absolute mRNA transfection efficiency in embryonic stem cells [8]: 23.1%
- Absolute DNA transfection efficiency in cardiomyocytes [9]: 7.6%
- Absolute mRNA transfection efficiency in cardiomyocytes [10]: 34.4%

Structure (SMILES): CCCCCCCCCCCCCCCSc1nc(NCCN2CCCC2)nc(SCCCCCCCCC)n1 [Compound S9S15D3]
- Absolute DNA transfection efficiency in HEK293 cells [1]: 2.5%
- Absolute mRNA transfection efficiency in HEK293 cells [2]: 2.5%
- Absolute DNA transfection efficiency in Hela cells [3]: 1.4%
- Absolute mRNA transfection efficiency in Hela cells [4]: 1.4%
- Absolute DNA transfection efficiency in MCF7 cells [5]: 1.4%
- Absolute mRNA transfection efficiency in MCF7 cells [6]: 1.1%
- Absolute DNA transfection efficiency in embryonic stem cells [7]: 1.8%
- Absolute mRNA transfection efficiency in embryonic stem cells [8]: 9.2%
- Absolute DNA transfection efficiency in cardiomyocytes [9]: 0.3%
- Absolute mRNA transfection efficiency in cardiomyocytes [10]: 6.6%

Structure (SMILES): CCCCCCCCCCCCCCCSc1nc(NCCN2CCN(C)CC2)nc(SCCCCCCCCC)n1 [Compound S9S15D5]
- Absolute DNA transfection efficiency in HEK293 cells [1]: 8.9%
- Absolute mRNA transfection efficiency in HEK293 cells [2]: 41.3%
- Absolute DNA transfection efficiency in Hela cells [3]: 4.4%
- Absolute mRNA transfection efficiency in Hela cells [4]: 4.4%
- Absolute DNA transfection efficiency in MCF7 cells [5]: 23.0%
- Absolute mRNA transfection efficiency in MCF7 cells [6]: 27.0%
- Absolute DNA transfection efficiency in embryonic stem cells [7]: 6.2%
- Absolute mRNA transfection efficiency in embryonic stem cells [8]: 33.4%
- Absolute DNA transfection efficiency in cardiomyocytes [9]: 12.8%
- Absolute mRNA transfection efficiency in cardiomyocytes [10]: 1.9%

Structure (SMILES): CCCCCCCCCCCCCCCSc1nc(NCCCN(C)C)nc(SCCCCCCCCC)n1 [Compound S9S15D6]
- Absolute DNA transfection efficiency in HEK293 cells [1]: 47.4%
- Absolute mRNA transfection efficiency in HEK293 cells [2]: 87.2%
- Absolute DNA transfection efficiency in Hela cells [3]: 23.7%
- Absolute mRNA transfection efficiency in Hela cells [4]: 23.7%
- Absolute DNA transfection efficiency in MCF7 cells [5]: 48.4%
- Absolute mRNA transfection efficiency in MCF7 cells [6]: 47.3%
- Absolute DNA transfection efficiency in embryonic stem cells [7]: 3.7%
- Absolute mRNA transfection efficiency in embryonic stem cells [8]: 2.5%
- Absolute DNA transfection efficiency in cardiomyocytes [9]: 6.9%
- Absolute mRNA transfection efficiency in cardiomyocytes [10]: 12.9%

Structure (SMILES): CCCCCCCCCCCCCCCSc1nc(NCCCN2CCOCC2)nc(SCCCCCCCCC)n1 [Compound S9S15D8]
- Absolute DNA transfection efficiency in HEK293 cells [1]: 22.2%
- Absolute mRNA transfection efficiency in HEK293 cells [2]: 5.4%
- Absolute DNA transfection efficiency in Hela cells [3]: 11.1%
- Absolute mRNA transfection efficiency in Hela cells [4]: 11.1%
- Absolute DNA transfection efficiency in MCF7 cells [5]: 3.0%
- Absolute mRNA transfection efficiency in MCF7 cells [6]: 13.5%
- Absolute DNA transfection efficiency in embryonic stem cells [7]: 1.9%
- Absolute mRNA transfection efficiency in embryonic stem cells [8]: 0.4%
- Absolute DNA transfection efficiency in cardiomyocytes [9]: 2.0%
- Absolute mRNA transfection efficiency in cardiomyocytes [10]: 0.6%

Structure (SMILES): CCCCCCCCCCCCCCCSc1nc(NCCCN2CCN(C)CC2)nc(SCCCCCCCCC)n1 [Compound S9S15D9]
- Absolute DNA transfection efficiency in HEK293 cells [1]: 25.3%
- Absolute mRNA transfection efficiency in HEK293 cells [2]: 40.4%
- Absolute DNA transfection efficiency in Hela cells [3]: 12.6%
- Absolute mRNA transfection efficiency in Hela cells [4]: 12.6%
- Absolute DNA transfection efficiency in MCF7 cells [5]: 22.5%
- Absolute mRNA transfection efficiency in MCF7 cells [6]: 27.6%
- Absolute DNA transfection efficiency in embryonic stem cells [7]: 21.6%
- Absolute mRNA transfection efficiency in embryonic stem cells [8]: 13.3%
- Absolute DNA transfection efficiency in cardiomyocytes [9]: 1.3%
- Absolute mRNA transfection efficiency in cardiomyocytes [10]: 7.1%

Structure (SMILES): CCCCCCCCCCCCCCCSc1nc(NCC2CCN(C)CC2)nc(SCCCCCCCCC)n1 [Compound S9S15D10]
- Absolute DNA transfection efficiency in HEK293 cells [1]: 56.1%
- Absolute mRNA transfection efficiency in HEK293 cells [2]: 94.8%
- Absolute DNA transfection efficiency in Hela cells [3]: 28.7%
- Absolute mRNA transfection efficiency in Hela cells [4]: 28.7%
- Absolute DNA transfection efficiency in MCF7 cells [5]: 58.8%
- Absolute mRNA transfection efficiency in MCF7 cells [6]: 49.4%
- Absolute DNA transfection efficiency in embryonic stem cells [7]: 16.8%
- Absolute mRNA transfection efficiency in embryonic stem cells [8]: 23.0%
- Absolute DNA transfection efficiency in cardiomyocytes [9]: 24.8%
- Absolute mRNA transfection efficiency in cardiomyocytes [10]: 4.3%
